Data taken from article PMC12349723, “Computationally accelerated identification of P-glycoprotein inhibitors” (PLOS One, 2025).
Several values for one entry are separate records, joined by “and”; a condition that tells them apart may be missing. Equal entries are not always repeated.

What was measured:
[1] = system: A2780 cells; assay: MTT viability assay, parental A2780 cells, with or without PTX; format: cell-based, human
Description: The chemotherapeutic sensitive DU145 human prostate cancer cells and the multidrug resistant sub-line, DU145-TXR, were generous gifts from Dr. Evan Keller (University of Michigan, Ann Arbor, MI). The MDR, P-gp overexpressing DU145-TXR cells were maintained under positive selection pressure by supplementing complete medium with 10 nM paclitaxel (Acros Organics, NJ). In addition to the aforementioned cell lines, the chemotherapeutic sensitive A2780 ovarian cancer cells (93112519, Sigma) and the multidrug resistant A2780-ADR (93112520, Sigma) were maintained in complete RPMI media consisting of RPMI-1640 with L-glutamine, 10% fetal bovine serum (FBS; Corning), 100 U/mL penicillin and 100 μg/mL streptomycin in a humidified incubator at 37 °C and 5% CO2. The MDR, P-gp overexpressing A2780-ADR cell line was maintained under positive selection pressure by supplementing complete medium with 100 nM doxorubicin (Fisher Scientific, NJ). The non-cancerous HFL1 (human lung fibroblast) cell line cell line was a generous gift from Dr. Robert Harrod (Southern Methodist University, Dallas, TX) and was maintained in complete F12K media consisting of F12K with 10% fetal bovine serum, 100 U/mL penicillin, and 100 µg/mL streptomycin (Gibco). Flasks and 96 well plates that were used with the non-cancerous line HFL1 were pre-treated with 0.1 mg/ml Collagen Type 1 (Gibco) and rinsed with PBS (Fisher).
Culture of the DU145, DU145-TXR, and HFL1 cell lines was performed as described in [8]. Culture of the A2780 and A2780-ADR cell lines was performed as described in [9]. MTT assays were performed as described in [8] with minor modifications. LC-MS/MS accumulation assays were performed as described in {Nanayakkara, 2018 #173} [9] with some modifications. […] The inhibitor concentration was lowered to 15 µM here, as the goal of the study was to identify compounds that were effective in reversing MDR at low concentrations, and to determine if the expanded virtual-assisted methods improved on our first-draft attempt. Compounds 56–98 were pre-screened using Resazurin cell viability assays: cells were incubated with 15 µM compound with or without 500 nM PTX for 48 hours, after which cell survival was assessed similar to [39]. Data represent the mean of two separate experiments, with n = 3 samples per experiment (n = 6 total) (S4 Table). The top performing compounds from this initial screen were re-tested with MTT viability assays against DU145-TXR cells, as described below.
MTT assays measure the reduction of yellow, water soluble 3-(4,5-dimethylthiazol-2-yl)-2,5-diphenyltetrazolium bromide (MTT) to blue, insoluble formazan crystals by cellular reductase processes in living cells. Cells were trypsinized from monolayers and seeded in complete medium in 96 well plates. Cancerous cell lines (DU145, DU145-TXR, A2780, A2780-ADR) were seeded at 3,000 cells per well in complete RPMI medium. The non-cancerous HFL1 line was seeded at 4,000 cells per well in complete F12K medium, in collagen-treated plates (Collagen Type 1, Gibco). Cells were incubated with experimental compounds for 48 hours at 37 °C and 5% CO2 in a humidified incubator. At 48 hours, MTT was added (20 µL/well of 5 mg/mL MTT in PBS) to each well. After incubation for 4 hours, the media was removed, and the formazan crystals were dissolved in 100 µL DMSO per well. Plates containing the semi-adherent A2780 or A2780-ADR lines were spun at 1400 rpm for 3 minutes prior to aspiration of media, and the addition of DMSO. Plates were shaken for 10 minutes at 500 rpm on an Orbital shaker (LabDoctor from MidSci, St Louis, MO). The absorbance was measured at 570 nm using a Bio-Tek Cytation 5 (Bio-Tek, Winooski, VT). The measured absorbance value was correlated with the number of metabolically active cells in that well, corrected for absorbance of media. […]

[2] = molecular target: T1, P-gp (Homo sapiens, UniProt P08183); assay: LC-MS/MS intracellular accumulation assay with or without tariquidar (P-gp transport substrate test) in DU145-TXR cells; format: in vitro ADME; details: for Intracellular accumulation (normalized ratio of compound to internal standard), Trial 1, + TQR / Intracellular accumulation (normalized ratio of compound to internal standard), Trial 2, + TQR / Intracellular accumulation (normalized ratio of compound to internal standard), Trial 1, - TQR / Intracellular accumulation (normalized ratio of compound to internal standard), Trial 2, - TQR / Intracellular accumulation (normalized ratio of compound to internal standard), Trial 3, + TQR / Intracellular accumulation (normalized ratio of compound to internal standard), Trial 3, - TQR: DU145-TXR, 5 µM compound, 2.5 h, mean ± SD, triplicate; for Intracellular accumulation (normalized ratio of compound to internal standard), Trial 1, + TQR / Intracellular accumulation (normalized ratio of compound to internal standard), Trial 2, + TQR / Intracellular accumulation (normalized ratio of compound to internal standard), Trial 3, + TQR: with 500 nM tariquidar; for Intracellular accumulation (normalized ratio of compound to internal standard), Trial 1, - TQR / Intracellular accumulation (normalized ratio of compound to internal standard), Trial 2, - TQR / Intracellular accumulation (normalized ratio of compound to internal standard), Trial 3, - TQR: without tariquidar; for P (- TQR vs + TQR), Trial 1 / P (- TQR vs + TQR), Trial 2 / P (- TQR vs + TQR), Trial 3: Student's T test of the mean
T1 construct: The MDR, P-gp overexpressing DU145-TXR cells were maintained under positive selection pressure; endogenous in cells; host or cells: DU145-TXR (paclitaxel-resistant sub-line of DU145 human prostate cancer cells)
Description: DU145-TXR cells were seeded at 350,000 cells per well in 6-well plates in complete RPMI medium. […] A full sample of DAU was also prepared for quantitative analysis. […] Media was removed with a glass vacuum aspirator. Cells were re-suspended and washed in 2mL of ice-cold Hank’s Balanced Salt Solution (HBSS, Gibco), and spun again at 2400 rpm. Cell lysates were diluted in 600 µL of ice-cold HBSS, flash-frozen in liquid nitrogen, and stored at −80 °C until analysis. LC-MS/MS intracellular accumulation assays were performed in collaboration with the Pharmacology Core at the University of Texas Southwestern Medical Center (UTSW). […] This method allowed us to quantify the change – if any – in the relative amount of compound present in the samples when TQR was added. An increase in the relative amount of compound indicates enhanced intracellular retention that compound. […] The “Internal Standard” (IS) is a known substance added in a constant amount to each sample. The “Peak Area”, expressed as “counts”, describes the number of MS/MS spectra from the experimental compound and serves as a measure of its relative abundance. […] These values allow a comparison of the relative abundance of compound between the “- TQR” and “+ TQR” samples, and to test for statistically significant differences. LC-MS/MS quantification was performed as follows. Cell lysate was aliquoted into Eppendorf tubes. In contrast to [9], blank cell lysates were not spiked with varying concentrations of each compound to create a standard curve, since compound amounts were normalized to abundance of the internal standard. […] The supernatant was then transferred to an HPCL vial, and subsequently analyzed using LC-MS/MS using a Sciex 4000QTRAP mass spectrometer coupled to a Shimadzu Prominence LC. […] The column flow rate was 1.5 ml/min using an Agilent C18 XDB, 5 micron packing 50 × 4.6 mm column. […] A BSA standard curve was then prepared in water and mixed using the same ratio. […] The ratio of Analyte to Internal Standard was normalized to the lysate content for each individual sample. […] Statistical significance was determined using a Student’s T Test in GraphPad Prism. We aimed to identify P-gp inhibitors that are not transport substrates of the pump itself. […] To test these predictions in vitro, liquid chromatography with tandem mass spectrometry (LC-MS/MS) was used to assess the intracellular accumulation of experimental compounds as described in [9]. […] The relative intracellular accumulation of each experimental compound was then assessed using LC-MS/MS. […] The P-gp substrate and chemotherapeutic daunorubicin (DAU) was used as a positive control for P-gp-mediated transport.

T1 sequence (P08183 whole entry): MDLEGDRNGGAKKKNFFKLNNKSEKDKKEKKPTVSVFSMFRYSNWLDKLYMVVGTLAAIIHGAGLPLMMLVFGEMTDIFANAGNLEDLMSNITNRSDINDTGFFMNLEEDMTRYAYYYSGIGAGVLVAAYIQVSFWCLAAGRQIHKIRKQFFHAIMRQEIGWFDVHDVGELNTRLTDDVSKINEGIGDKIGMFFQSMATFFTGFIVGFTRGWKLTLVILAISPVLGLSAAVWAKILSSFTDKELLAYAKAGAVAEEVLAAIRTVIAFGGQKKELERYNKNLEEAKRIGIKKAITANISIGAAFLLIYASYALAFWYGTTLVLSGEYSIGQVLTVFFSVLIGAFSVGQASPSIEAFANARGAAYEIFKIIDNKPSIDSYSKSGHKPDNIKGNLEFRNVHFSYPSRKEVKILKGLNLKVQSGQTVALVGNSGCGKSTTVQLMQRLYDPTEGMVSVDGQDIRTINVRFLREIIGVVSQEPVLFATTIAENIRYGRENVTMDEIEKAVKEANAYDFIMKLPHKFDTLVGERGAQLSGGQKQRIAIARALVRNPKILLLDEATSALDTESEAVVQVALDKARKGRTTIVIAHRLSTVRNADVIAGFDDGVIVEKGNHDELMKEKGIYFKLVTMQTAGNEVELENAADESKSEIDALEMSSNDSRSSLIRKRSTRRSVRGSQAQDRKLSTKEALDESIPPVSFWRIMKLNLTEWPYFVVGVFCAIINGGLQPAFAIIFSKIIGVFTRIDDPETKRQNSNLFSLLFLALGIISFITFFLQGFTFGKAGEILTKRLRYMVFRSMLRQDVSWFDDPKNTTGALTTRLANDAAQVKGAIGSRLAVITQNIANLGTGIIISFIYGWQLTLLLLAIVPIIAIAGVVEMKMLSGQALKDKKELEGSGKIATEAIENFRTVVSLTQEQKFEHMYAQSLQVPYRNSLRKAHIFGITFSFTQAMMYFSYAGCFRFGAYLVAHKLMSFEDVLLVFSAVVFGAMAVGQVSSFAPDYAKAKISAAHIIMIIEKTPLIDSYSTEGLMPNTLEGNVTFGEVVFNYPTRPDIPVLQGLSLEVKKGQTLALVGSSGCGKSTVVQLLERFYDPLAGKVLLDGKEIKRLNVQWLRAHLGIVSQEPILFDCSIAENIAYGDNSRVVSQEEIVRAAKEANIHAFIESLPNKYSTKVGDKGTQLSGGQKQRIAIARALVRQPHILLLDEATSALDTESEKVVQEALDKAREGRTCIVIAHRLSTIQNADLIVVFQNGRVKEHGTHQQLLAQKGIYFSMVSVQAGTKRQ

| Compound | Mean % Survival ([1]; A2780 cells, 15 µM compound + 500 nM PTX, mean of 8 or 12 samples) [%] | % Survival (individual sample) ([1]; A2780 cells, 15 µM compound + 500 nM PTX, single samples) | viability at 15 µM ([1]; Homo sapiens, A2780, A2780 cells, 15 µM compound alone, mean of 8 or 12 samples, read-out: Mean % Survival) [%] | Intracellular accumulation (normalized ratio of compound to internal standard), Trial 1, + TQR [2] | Intracellular accumulation (normalized ratio of compound to internal standard), Trial 2, + TQR [2] | Intracellular accumulation (normalized ratio of compound to internal standard), Trial 1, - TQR [2] | Intracellular accumulation (normalized ratio of compound to internal standard), Trial 2, - TQR [2] | P (- TQR vs + TQR), Trial 1 [2] | P (- TQR vs + TQR), Trial 2 [2] | Intracellular accumulation (normalized ratio of compound to internal standard), Trial 3, + TQR [2] | Intracellular accumulation (normalized ratio of compound to internal standard), Trial 3, - TQR [2] | P (- TQR vs + TQR), Trial 3 [2] |
| --- | --- | --- | --- | --- | --- | --- | --- | --- | --- | --- | --- | --- |
| Cn1cnnc1SCc1c(C(=O)O)nnn1-c1nonc1N [Compound 59, Cn1cnnc1SCc1c(nnn1-c1nonc1N)C(O)=O] | 11.4 | 6% and 9% | 99 |  |  |  |  |  |  |  |  |  |
| Nc1nonc1-n1nnc(C(=O)N/N=C/c2c3ccccc3cc3ccccc23)c1COc1ccc(F)cc1 [Compound 60, Nc1nonc1-n1nnc(C(=O)N\N=C\c2c3ccccc3cc3ccccc23)c1COc1ccc(F)cc1] |  |  |  | 0.282 ± 0.010 | 0.250 ± 0.003 | 0.231 ± 0.165 | 0.250 ± 0.003 | 0.6 | > 1 |  |  |  |
| CCN1CCN(Cc2c(C(=O)N/N=C3/C(=O)N(C)c4ccccc43)nnn2-c2nonc2N)CC1 [Compound 61, CCN1CCN(Cc2c(nnn2-c2nonc2N)C(=O)N\N=C2\C(=O)N(C)c3ccccc23)CC1] |  |  |  | 0.076 ± 0.001 | 0.027 ± 0.011 | 0.023 ± 0.002 | 0.016 ± 0.006 | 2 x 10^-6 | 0.2 | 0.126 ± 0.010 | 0.021 ± 0.004 | 0.0001 |
| O=C(c1cc2ccccc2[nH]1)N1CCN(S(=O)(=O)c2cccc3nonc23)CC1 [Compound 66, O=C(N1CCN(CC1)S(=O)(=O)c1cccc2nonc12)c1cc2ccccc2[nH]1] |  |  |  | 0.833 ± 0.124 | 0.036 ± 0.005 | 0.747 ± 0.096 | 0.040 ± 0.001 | 0.4 | 0.2 | 0.140 ± 0.029 | 0.170 ± 0.039 | 0.3 |
